Measured values taken from patent US20250249006A1, “TREATMENT” (Verona Pharma PLC, priority 2024, published 2025).

How the values were obtained:
Type in all cases: in vivo
[1] = system: patients aged 40-80 years with moderate to severe COPD; assay: Clinical studies, ensifentrine vs placebo: quality of life responders (SGRQ −4 units) in patients with low FEV1 response; conditions: for Odds in favor of a response, SGRQ (−4 Unit) Responders / Ensifentrine vs. Placebo Odds Ratio, SGRQ (−4 Unit) Responders: logistic regression; for Odds in favor of a response, SGRQ (−4 Unit) Responders / Ensifentrine vs. Placebo Odds Ratio, SGRQ (−4 Unit) Responders / % SGRQ (−4 Unit) Responders / % responders, SGRQ (−4 Units) Responders / Ensifentrine v placebo Odds Ratio, SGRQ (−4 Units) Responders / Odds in favour of response, SGRQ (−4 Units) Responders: pooled mITT; for % SGRQ (−4 Unit) Responders / % responders, SGRQ (−4 Units) Responders: 3 mg BID nebuliser; for % responders, SGRQ (−4 Units) Responders / Ensifentrine v placebo Odds Ratio, SGRQ (−4 Units) Responders / Odds in favour of response, SGRQ (−4 Units) Responders: improvement in morning trough FEV1 less than 40 mL (table line prints <60 mL); for proportion of patients with a clinically important improvement in QoL: over 24 weeks
Description: (§1) Clinical studies were conducted to determine the efficacy of ensifentrine in treating COPD compared with placebo. Ensifentrine was administered by nebuliser at a dose of 3 mg twice daily (BID) for 24 weeks. The studies were multi-centre, randomized, double-blind, parallel-group, placebo-controlled trials.
(§2) The study population included patients aged 40-80 years with moderate to severe COPD (FEV1 30%-70% p.n., FEV1/forced vital capacity (FVC) ratio<0.7, with mMRC≥2). The randomization stratified (a) the use of stable background maintenance LAMA or LABA therapy use (approx. 50%. yes or no) and (b) cigarette smoking (current or former). Inhaled corticosteroid (ICS) maintenance therapy was permitted in up to 20% of patients under certain provisions.
The primary endpoint was change from baseline in average FEV1 area under the curve AUC0-12h post-dose at week 12. Also assessed were COPD symptoms and quality of life (QoL) in patients showing lower responses in terms of lung function, and in particular patients with: (i) improvement in average FEV1 AUC0-12h of less than 100 mL and (ii) improvement in morning trough FEV1 of less than 100 mL, less than 60 mL or less than 40 mL.
COPD symptoms were assessed using Evaluating Respiratory Symptoms (E-RS; EXACT-Respiratory Symptoms, The minimal clinically important difference (MCID) of the E-RS is a total score of −2 units. User Manual (Version 3.0), October 2014) and Transitional Dyspnea Index (TDI; Mahler et al, The MCID of the transition dyspnea index is a total score of one unit. COPD 2005, 2:99-103.) and QoL was assessed using the St. George's Respiratory Questionnaire (SGRQ; Jones, St. George's Respiratory Questionnaire: The MCID of the SGRQ is a total score of −4 units. COPD 2005, 2:75-79.).

[2] = system: patients aged 40-80 years with moderate to severe COPD; assay: Clinical studies, ensifentrine vs placebo: moderate/severe COPD exacerbations; conditions: nominally statistically significant
Description: as §1, §2
COPD exacerbations were defined as worsening of 2 or more major symptoms (dyspnea, sputum volume, and sputum purulence) or worsening of any 1 major symptom together with any 1 of the following minor symptoms: sore throat, colds, fever without other cause, and increased cough or wheeze for at least 2 consecutive days. COPD exacerbations were considered to be of moderate severity if treatment with systemic corticosteroids and/or antibiotics was required and were considered to be severe if hospitalization was required.

[3] = system: patients aged 40-80 years with moderate to severe COPD; assay: Clinical studies, ensifentrine vs placebo: lung function (average FEV1 AUC0-12h)
Description: as §1, §2
The primary endpoint was change from baseline in average FEV1 area under the curve AUC0-12h post-dose at week 12. Also assessed were COPD symptoms and quality of life (QoL) in patients showing lower responses in terms of lung function, and in particular patients with: (i) improvement in average FEV1 AUC0-12h of less than 100 mL and (ii) improvement in morning trough FEV1 of less than 100 mL, less than 60 mL or less than 40 mL. […]
Average FEV1 AUC0-12h is defined as area under the curve over 12 hours of the FEV1, divided by 12 hours. […] Morning trough FEV1 is defined as the FEV1 assessed at 11.5 to 12 hours following the prior evening dose.

[4] = average FEV1 AUC0-12h <100 mL at Week 12, Week 12
[5] = average FEV1 AUC0-12h <100 mL at Week 12, Week 24
[6] = morning trough FEV1 <60 mL at Week 6, Week 6
[7] = morning trough FEV1 <60 mL at Week 12, Week 12
[8] = morning trough FEV1 <60 mL at Week 24, Week 24
[9] = morning trough FEV1 <100 mL at Week 6, Week 6
[10] = morning trough FEV1 <100 mL at Week 12, Week 12
[11] = morning trough FEV1 <100 mL at Week 24, Week 24

COc1cc2c(cc1OC)-c1c/c(=N\c3c(C)cc(C)cc3C)n(CCNC(N)=O)c(=O)n1CC2 [Ensifentrine, N-(2-{(2E)-9,10-dimethoxy-4-oxo-2-[(2,4,6-trimethylphenyl)imino]-6,7-dihydro-2H-pyrimido[6,1-a]isoquinolin-3(4H)-yl}ethyl)urea]
Odds in favor of a response, SGRQ (−4 Unit) Responders ([1]; average FEV1 AUC0-12h <100 mL at Week 12, Week 6): 1.10 | Ensifentrine vs. Placebo Odds Ratio, SGRQ (−4 Unit) Responders [1, 4]: 1.31 | Odds in favor of a response, SGRQ (−4 Unit) Responders [1, 4]: 0.92 | Ensifentrine vs. Placebo Odds Ratio, SGRQ (−4 Unit) Responders [1, 5]: 1.04 | Odds in favor of a response, SGRQ (−4 Unit) Responders [1, 5]: 0.95 | % SGRQ (−4 Unit) Responders ([1]; average FEV1 AUC0-12h <100 mL at Week 12, responders at Week 6): 45.4% | % SGRQ (−4 Unit) Responders ([1]; average FEV1 AUC0-12h <100 mL at Week 12, responders at Week 12): 45.4% | % SGRQ (−4 Unit) Responders ([1]; average FEV1 AUC0-12h <100 mL at Week 12, responders at Week 24): 48.5% | % responders, SGRQ (−4 Units) Responders ([1]; Week 6): 42.6% | Ensifentrine v placebo Odds Ratio, SGRQ (−4 Units) Responders ([1]; Week 6): 1.260 | Odds in favour of response, SGRQ (−4 Units) Responders ([1]; Week 6): 0.903 | % responders, SGRQ (−4 Units) Responders ([1]; Week 12): 44.7% | Ensifentrine v placebo Odds Ratio, SGRQ (−4 Units) Responders ([1]; Week 12): 1.316 | Odds in favour of response, SGRQ (−4 Units) Responders ([1]; Week 12): 0.802 | % responders, SGRQ (−4 Units) Responders ([1]; Week 24): 48.7% | Ensifentrine v placebo Odds Ratio, SGRQ (−4 Units) Responders ([1]; Week 24): 1.138 | Odds in favour of response, SGRQ (−4 Units) Responders ([1]; Week 24): 0.797 | proportion of patients with a clinically important improvement in QoL ([1]; increase in average FEV1 AUC0-12h less than 100 mL at Week 12): half | proportion of patients with a clinically important improvement in QoL ([1]; increase in morning trough FEV1 less than 100 mL at Week 12): half | Ensifentrine vs. Placebo Odds Ratio, SGRQ (−4 Unit) Responders [1, 6]: 1.25 | Odds in favor of a response, SGRQ (−4 Unit) Responders [1, 6]: 0.98 | % SGRQ (−4 Unit) Responders ([1]; morning trough FEV1 <60 mL at Week 6, responders at Week 6): 43.4% | Ensifentrine vs. Placebo Odds Ratio, SGRQ (−4 Unit) Responders [1, 7]: 1.28 | Odds in favor of a response, SGRQ (−4 Unit) Responders [1, 7]: 0.82 | % SGRQ (−4 Unit) Responders ([1]; morning trough FEV1 <60 mL at Week 12, responders at Week 12): 45.1% | Ensifentrine vs. Placebo Odds Ratio, SGRQ (−4 Unit) Responders [1, 8]: 1.07 | Odds in favor of a response, SGRQ (−4 Unit) Responders [1, 8]: 0.79 | % SGRQ (−4 Unit) Responders ([1]; morning trough FEV1 <60 mL at Week 24, responders at Week 24): 48.2% | Ensifentrine vs. Placebo Odds Ratio, SGRQ (−4 Unit) Responders [1, 9]: 1.29 | Odds in favor of a response, SGRQ (−4 Unit) Responders [1, 9]: 1.09 | % SGRQ (−4 Unit) Responders ([1]; morning trough FEV1 <100 mL at Week 6, responders at Week 6): 45.0% | Ensifentrine vs. Placebo Odds Ratio, SGRQ (−4 Unit) Responders [1, 10]: 1.34 | Odds in favor of a response, SGRQ (−4 Unit) Responders [1, 10]: 0.80 | % SGRQ (−4 Unit) Responders ([1]; morning trough FEV1 <100 mL at Week 12, responders at Week 12): 46.3% | Ensifentrine vs. Placebo Odds Ratio, SGRQ (−4 Unit) Responders [1, 11]: 1.03 | Odds in favor of a response, SGRQ (−4 Unit) Responders [1, 11]: 0.77 | % SGRQ (−4 Unit) Responders ([1]; morning trough FEV1 <100 mL at Week 24, responders at Week 24): 48.1% | reduction in moderate/severe exacerbation rate and risk (time to first event) vs placebo ([2]; patients with improvement in average FEV1 AUC0-12h less than 100 mL): 37% | reduction in moderate/severe exacerbation rate and risk (time to first event) vs placebo ([2]; patients with improvement in morning trough FEV1 less than 100 mL): approximately 40% | primary endpoint of average FEV1 (AUC)0-12h ([3]; Week 12, 3 mg BID nebuliser vs placebo): met | improvement in lung function ([3]; all subgroups): statistically significant
